Reference: PubChem BioAssay (NCI)
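How tested: cells in 96-well plates exposed to compound for 48 hours at five concentrations. GI50 is the concentration that inhibits growth by half. TGI is the concentration that stops growth completely.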

What was measured:
Test in all cases: NCI anticancer screen, dose series, 48 h
[1] = system: NCI-H522 lung
[2] = system: OVCAR-4 ovarian
[3] = system: SF-268 CNS
[4] = system: SK-MEL-28 melanoma
[5] = system: SK-OV-3 ovarian
[6] = system: SN12C renal
[7] = system: SNB-75 CNS
[8] = system: U251 CNS
[9] = system: A498 renal

Row | SMILES | TGI [1] [µM] | TGI [2] [µM] | TGI [3] [µM] | TGI [4] [µM] | TGI [5] [µM] | TGI [6] [µM] | TGI [7] [µM] | TGI [8] [µM] | TGI [9] [µM] | GI50 [1] [µM] | GI50 [3] [µM] | GI50 [6] [µM]
1 | Cc1cnc2sn(-c3ccc([N+](=O)[O-])cc3)c(=O)c2c1 | > 100 | > 100 | > 100 | > 100 | 81.4 | > 100 | 51.6 | > 100 | – | – | – | –
2 | Cc1nc(CC#N)n[nH]1 | > 100 | > 100 | > 100 | – | > 100 | > 100 | > 100 | > 100 | – | – | – | –
3 | CCOC(=O)c1[nH]c(-c2[nH]c(-c3[nH]c(-c4[nH]c(C(=O)OCC)c(C)c4C(=O)OCC)c(C(=O)OCC)c3C)c(C)c2C(=O)OCC)c(C(=O)OCC)c1C | > 100 | > 100 | > 100 | > 100 | > 100 | > 100 | – | > 100 | > 100 | – | – | –
4 | O=C1/C(=C\c2cccc(Oc3ccccc3)c2)SC(c2ccccc2)N1c1ccccc1 (stereo unspecified) | > 100 | > 100 | > 100 | > 100 | > 100 | > 100 | – | > 100 | > 100 | – | – | –
5 | COC(CN(C(C)=O)C1CCC2(SCCS2)c2[nH]c3ccccc3c21)OC (stereo unspecified) | > 100 | > 100 | > 100 | > 100 | – | > 100 | > 100 | > 100 | > 100 | – | – | –
6 | COC(=O)c1ccc(/C=C2\Oc3ccccc3C2=O)cc1 | > 100 | > 100 | > 100 | > 100 | > 100 | > 100 | > 100 | > 100 | – | – | – | –
7 | CN1C/C(=C\c2cccs2)C(O)/C(=C/c2cccs2)C1 (stereo unspecified) | > 100 | > 100 | > 100 | > 100 | > 100 | > 100 | – | > 100 | > 100 | – | – | –
8 | CCOC(=O)c1[nH]c(Br)c(-c2ccc(OC)c(OC)c2)c1Br | 0.349 | – | 35.7 | 20.3 | – | 49.4 | 32.8 | 1.44 | 0.194 | 0.0328 | 1.03 | 1.59
9 | O=C(/C=C/c1ccccc1)CSc1ncn[nH]1 | > 100 | > 100 | > 100 | > 100 | > 100 | > 100 | > 100 | > 100 | – | – | – | –
10 | CC1(C)OC2[C@@H](CO[C@@]3([C@@H](O)CCO)OC(C)(C)O[C@@H]23)O1 (stereo partly specified) | > 100 | > 100 | > 100 | > 100 | – | > 100 | > 100 | > 100 | – | – | – | –
11 | C#C/C=C\CCCC/C=C\C#CC#CCCCC#CC#C[C@H](COS(=O)(=O)O)OS(=O)(=O)O | > 100 | > 100 | > 100 | > 100 | – | > 100 | > 100 | > 100 | – | – | – | –
12 | CCOC(=O)c1nnsc1N/N=C\c1ccc([N+](=O)[O-])cc1 | > 100 | > 100 | > 100 | > 100 | > 100 | > 100 | > 100 | > 100 | – | – | – | –
13 | CS(=O)(=O)OCCN(CCOS(C)(=O)=O)c1ccc(C=Nc2cccc(Cl)c2)cc1 | 2.84 | > 63.6 | > 100 | > 30.4 | – | 27.8 | > 31.1 | 20.7 | 13.8 | – | – | –
14 | O=C(OC1C2OC(=O)c3cc(O)c(O)c(O)c3Oc3cc4c(c(O)c3O)-c3c(cc(O)c(O)c3O)C(=O)OCC3OC(O)C(OC(=O)c5cc(O)c(O)c(O)c5Oc5cc6c(c(O)c5O)-c5c(cc(O)c(O)c5O)C(=O)OC1C(COC6=O)OC2O)C(OC(=O)c1cc(O)c(O)c(O)c1)C3OC4=O)c1cc(O)c(O)c(O)c1 (stereo unspecified) | – | 47.8 | > 100 | > 100 | 44.4 | > 100 | – | – | – | – | – | –
15 | c1ccc2c(c1)c1c(n2CCOCCN2CCCC2)CCCC1 | – | 73.8 | > 100 | 29.4 | 87.7 | 33.6 | 76 | 25.8 | – | – | – | –
16 | O=C1C(Br)=C(c2ccccc2)O/C1=C/C(=O)c1ccc(Br)cc1 | 39.1 | > 100 | > 100 | > 100 | – | 26.9 | > 100 | > 100 | > 100 | – | – | –
17 | O=[N+]([O-])c1ccc2c(c1)N([O-])C1(CCCCC1)[N+]2=O | – | 23.7 | 69.4 | 34.5 | 44.2 | 35.1 | 33.2 | 32.3 | – | – | – | –
18 | CCCC(CCC(N)=O)(CCC(N)=O)[N+](=O)[O-] | > 100 | – | > 100 | – | > 100 | > 100 | > 100 | > 100 | – | – | – | –
